{
  "source": "patent US9808470B2",
  "about": "“Estrogenic components for use in the treatment of neurological disorders” (UNIVERSITE DE LIEGE, priority 2012, dated 2017)",
  "key": {"[1]": {"experiment": "Ex.3 neuroprotective HIE rat model: brain weight", "type": "in vivo", "conditions": "PND14", "experimental": "Animals were then perfused transcardially with 0.9% saline solution at 4° C., and then with 4% paraformaldehyde in a 0.1-mol/L phosphate-buffered saline solution (pH 7.4) at 4° C. The brains were quickly isolated, weighed and immersed in the same fixative solution at 4° C. for 24 hours, dehydrated with a graded series of ethanol and xylene, and embedded in paraffin.\nNewborn rat pups were assigned to one of the following 6 groups from postnatal day 4: Sham group (n=24), Vehicle group (n=14), E4 1 mg/kg/per day group (n=11), E4 5 mg/kg/per day group (n=14), E4 10 mg/kg/per day group (n=14), or E4 50 mg/kg/per day group (n=19). From postnatal day 4, rat pups were intraperitoneally injected either vehicle (Vehicle group) or E4 (1, 5, 10, or 50 mg/kg/per day in accordance to the E4 group assignment) or neither vehicle nor E4 (Sham group). At day 7, 30 minutes after last injection, animals were anesthetized with isoflurane (induction, 3.0%; maintenance, 1.5%), and the rat pups from Vehicle and E4 groups passed through surgery encompassing left common carotid artery double ligation and cut. After the procedure, the pups were returned to their dams and were allowed to recover for 1 hour. The pups were then placed in the humidified hypoxic in vivo cabinet (CoyLab, Grass Lake, Mich., USA). Hypoxia was produced by the inhalation of 11%-8% of oxygen balanced by nitrogen at decreased concentration of oxygen for 20 minutes, followed by inhalation of 8% oxygen and 92% nitrogen at constant concentration for 35 minutes. All the manipulations were performed at 37° C. The Sham group went through similar procedures without left common carotid artery ligation followed by hypoxia nor injection. Rat pups recovered with their dams and reared normally until being sacrificed at postnatal day 14."}, "[2]": {"test_system": "vascular endothelial growth factor (VEGF)", "experiment": "Ex.4 therapeutic HIE rat model: VEGF staining", "type": "in vivo", "experimental": "The sections were heated in 10 mmol/L citrate buffer (pH 6.0) at 100° C. for 10 minutes. Endogenous peroxidase activity was blocked with 3% hydrogen peroxide for 10 minutes and after a second blocking with 5% normal goat serum, the sections were incubated with anti-doublecortin (DCX) antibody, diluted 1:1000 (rabbit polyclonal antibody; Abcam, Cambridge, UK) and anti-vascular endothelial growth factor (VEGF) antibody, diluted 1:100 (mouse monoclonal antibody; Abcam, Cambridge, UK) overnight at 4° C. After rinsing, Alexa Fluor® goat anti-rabbit, diluted 1:1000 and Alexa Fluor® goat anti-mouse, diluted 1:1000 (Invitrogen Inc., Ghent, Belgium) were added and sections were incubated 1 h at room temperature. Mounting medium containing 4′,6-diamidino-2-phenylindole (DAPI) for fluorescent studies was used (Vector Laboratories). Samples were analyzed with the aid of a microscope (Olympus Vanox AHBT3, Olympus), and the ImageJ software (NIH). The percentage of positively stained cells was quantified as a sum of positively stained either DCX or VEGF cells divided by the total number of DAPI positive cells expressed in percentage.\nTo study the therapeutic effect of estetrol, newborn rat pups were assigned to one of the following 6 groups at postnatal day 7: sham group (n=29), vehicle group (n=20), 1 mg/kg E4 group (n=16), 5 mg/kg E4 group (n=19), 10 mg/kg day E4 (n=17) and 50 mg/kg day E4 group (n=15). At postnatal day 7 animals were anesthetized with isoflurane (induction, 3.0%; maintenance, 1.5%), and the rat pups from vehicle and E4 groups passed through surgery encompassing left common carotid artery double ligation and cut. After surgery, the pups were returned to their dams and allowed to recover for 1 hour. The pups were then placed in a humidified hypoxic in vivo cabinet (CoyLab). Hypoxia was produced by the inhalation of 11%-8% of oxygen balanced by nitrogen at decreased concentration of oxygen for 20 minutes, followed by inhalation of 8% oxygen and 92% nitrogen at constant concentration for 35 minutes. All the manipulations were performed at 37° C.\nUpon retrieval from the hypoxia chamber the rat pups were injected intraperitoneally either by vehicle (vehicle group) or by E4 (1 mg/kg, 5 mg/kg, 10 mg/kg or 50 mg/kg) in accordance to the group assignment. The animals from the sham group went through similar procedures but proceeded neither left common carotid artery ligation and cut followed by hypoxia nor vehicle or estetrol administration. Rat pups recovered with their dams until being sacrificed at postnatal day 14."}},
  "data": [
    {"smiles": "C[C@]12CC[C@@H]3c4ccc(O)cc4CC[C@H]3[C@@H]1[C@@H](O)[C@@H](O)[C@@H]2O", "note": "[E4, 1,3,5(10)-estratrien-3,15α,16α,17β-tetrol]", "values": [
      {"measurement": "brain weight", "setting": "[1]; 1 mg/kg E4 ip PND4-7 before HI", "value": "1.155 ± 0.022", "unit": "g"},
      {"measurement": "brain weight", "setting": "[1]; 5 mg/kg E4 ip PND4-7 before HI", "value": "1.181 ± 0.023", "unit": "g"},
      {"measurement": "brain weight", "setting": "[1]; 10 mg/kg E4 ip PND4-7 before HI", "value": "1.179 ± 0.012", "unit": "g"},
      {"measurement": "brain weight", "setting": "[1]; 50 mg/kg E4 ip PND4-7 before HI", "value": "1.163 ± 0.016", "unit": "g"},
      {"measurement": "percentage of VEGF positively stained cells", "setting": "[2]; 5 mg/kg E4 single ip dose after HI, CA1", "value": "37.4±4.833", "unit": "%"},
      {"measurement": "percentage of VEGF positively stained cells", "setting": "[2]; 10 mg/kg E4 single ip dose after HI, CA1", "value": "37.1±3.84", "unit": "%"},
      {"measurement": "percentage of VEGF positively stained cells", "setting": "[2]; 10 mg/kg E4 single ip dose after HI, cortex", "value": "49.4±4.949", "unit": "%"},
      {"measurement": "percentage of VEGF positively stained cells", "setting": "[2]; 50 mg/kg E4 single ip dose after HI, CA1", "value": "45.1±4.753", "unit": "%"},
      {"measurement": "percentage of VEGF positively stained cells", "setting": "[2]; E4 1, 5, 10, 50 mg/kg single ip dose after HI, CA2/CA3, between study groups", "value": "not significantly different between the study groups"},
      {"measurement": "VEGF staining", "setting": "[2]; E4 1, 5, 10, 50 mg/kg single ip dose after HI, DG, among study groups", "value": "neither DCX nor VEGF staining was significantly different"}
    ]}
  ]
}
